This assay has as its target Ribosomal protein S6 kinase alpha-3 (Homo sapiens, UniProt P51812). The experiment in a line: Kinase Glo Assay: Human RSK2 protein, purchased from Invitrogen, is used to measure kinase activity utilizing Kinase Glo Plus (Promega) a homogeneous assay technology, which uses a luciferin-luciferase based ATP detection reagent to quantify residual ATP. The assay is performed using 0.75 nM His-RSK2, 0.75 uM ATP and 1.0 uM S6 Kinase/RSK Substrate Peptide 1 (Upstate, catalog #12-124), in assay buffer consisting of 25 mM HEPES, pH 7.5, 10 mM MgCl2, 5 mM MnCl2, 50 mM KCl, 0.2% BSA, 0.01% CHAPS, 100 uM Na3VO4, 0.5 mM DTT, and 1% DMSO. Solutions of test compounds at various concentrations are prepared by 1:3 fold serial dilution of a 1 mM solution of compound in DMSO. The DMSO solutions are further diluted with assay buffer to a final concentration of DMSO of 5%.The assay is performed in a 384 well, white, non-binding plate (Corning, catalogue #3574). Solutions of test compounds (10 uL) are transferred to a dry assay plate, followed by addition of 20 uL kinase.

Ribosomal protein S6 kinase alpha-3, sequence (P51812 whole entry): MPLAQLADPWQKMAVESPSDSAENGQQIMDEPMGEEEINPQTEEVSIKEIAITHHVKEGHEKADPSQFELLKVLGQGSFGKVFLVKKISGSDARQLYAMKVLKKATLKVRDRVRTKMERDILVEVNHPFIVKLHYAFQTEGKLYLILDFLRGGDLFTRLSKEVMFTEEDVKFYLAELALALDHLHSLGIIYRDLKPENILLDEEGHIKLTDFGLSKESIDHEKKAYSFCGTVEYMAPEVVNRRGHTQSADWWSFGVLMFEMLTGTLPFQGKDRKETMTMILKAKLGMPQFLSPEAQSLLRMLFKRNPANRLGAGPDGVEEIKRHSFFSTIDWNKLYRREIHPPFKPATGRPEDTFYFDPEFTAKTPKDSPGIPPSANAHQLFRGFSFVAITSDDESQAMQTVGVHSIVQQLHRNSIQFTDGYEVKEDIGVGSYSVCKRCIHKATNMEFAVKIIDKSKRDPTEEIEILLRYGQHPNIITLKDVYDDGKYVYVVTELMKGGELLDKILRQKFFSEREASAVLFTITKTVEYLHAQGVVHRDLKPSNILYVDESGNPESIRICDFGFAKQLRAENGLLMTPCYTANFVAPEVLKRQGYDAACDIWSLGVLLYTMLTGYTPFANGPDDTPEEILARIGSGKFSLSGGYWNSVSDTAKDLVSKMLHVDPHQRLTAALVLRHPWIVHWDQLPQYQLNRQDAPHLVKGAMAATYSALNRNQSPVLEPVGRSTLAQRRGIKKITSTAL

As a reminder, the IC50 is the concentration that gives 50% inhibition. On to `CC1(C)CNC(=O)c2cc3ccc(C(=O)Nc4cc(C(C)(C)C)on4)nc3n2C1`, for which the IC50 amounted to 175 nM.
Consider `O=C(Nc1cccc(-c2c[nH]cn2)c1)c1ccc2cc3n(c2n1)CCCNC3=O`, for which the IC50 stood at 17 nM.

Values taken from ChEMBL document CHEMBL3639063, “Heterocyclic compounds containing a pyrrolopyridine or benzimidazole core” (2015).
